The inhibition is the change of the read-out against control, counted positive when it falls.

The source made the active and inactive calls.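 The calls were made as follows: active = change in p38 protein level versus solvent-only treated cells of at least 30%, down or up; inactive = change under 30% either way.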

The record followed here is PubChem BioAssay AID588659 (The Scripps Research Institute Molecular Screening Center, 2011).

Experiment [1] concerns the target Mitogen-activated protein kinase 14 (Homo sapiens) (UniProt Q16539). Briefly: altered p38 MAPK protein abundance – HT29 cells, chemiluminescent western blot, powder samples, counter-screen for KLF5 inhibitor project, late-stage follow-up (AID 588659). The conditions noted are these: HT29 cells, p38 western blot, 24 h; at 10 µM; stronger effect = higher value. (Immunoblotting shows a protein as a band on a membrane.)

Experiment [2] concerns HT29 cells, p38 western blot, 24 h. The experiment is described as above. The conditions noted are these: measured here: p38 band fold change vs DMSO; at 10 µM.

Sequence of Mitogen-activated protein kinase 14 (Homo sapiens) (Q16539 whole entry, looked up): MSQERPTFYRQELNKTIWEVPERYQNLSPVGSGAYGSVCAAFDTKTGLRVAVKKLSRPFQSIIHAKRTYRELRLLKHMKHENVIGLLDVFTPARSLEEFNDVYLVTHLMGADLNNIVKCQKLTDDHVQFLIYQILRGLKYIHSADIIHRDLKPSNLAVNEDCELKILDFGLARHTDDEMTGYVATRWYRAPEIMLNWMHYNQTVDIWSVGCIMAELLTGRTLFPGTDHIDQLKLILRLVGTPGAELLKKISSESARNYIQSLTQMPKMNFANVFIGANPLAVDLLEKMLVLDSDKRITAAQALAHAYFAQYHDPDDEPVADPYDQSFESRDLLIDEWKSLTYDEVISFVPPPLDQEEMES

On to `CN(C(=O)COC(=O)/C=C/c1cccc([N+](=O)[O-])c1)C1CCS(=O)(=O)C1` (centres undefined), for which the inhibition in experiment [1] is 14.3% (inactive).
On to `CN(C(=O)CNC(=O)/C=C/c1cccc(Cl)c1)C1CCS(=O)(=O)CC1`, for which, in experiment [1], the inhibition is 10.2% (inactive).
In experiment [2], `CN(C(=O)CNC(=O)/C=C/c1cccc(Cl)c1)C1CCS(=O)(=O)C1` (centres undefined) showed a fold change of 1.02. Moreover, in experiment [1], the inhibition was -2.37% (inactive).
